The text below walks through data of ChEMBL document CHEMBL1140563, “Redefining the structure-activity relationships of 2,6-methano-3-benzazocines. 5. Opioid receptor binding properties of N-((4'-phenyl)-phenethyl) analogues of 8-CAC” (Bioorg Med Chem Lett, 2007).

Experiment [1] deals with T1, Kappa-type opioid receptor (Homo sapiens, UniProt P41145). The experiment in a line: biochemical. The experiment is classed as cell-based, CHO.
Description: Displacement of [3H]U-69593 from kappa opioid receptor expressed in CHO cells
The target in experiment [2] is T2, Delta-type opioid receptor (Homo sapiens, UniProt P41143). The experiment in a line: Displacement of [3H]naltrindole from delta opioid receptor expressed in CHO cells. The format is cell-based.
Experiment [3] has as its target T3, Mu-type opioid receptor (Homo sapiens, UniProt P35372). The experiment in a line: Antagonist activity at human mu opioid receptor expressed in CHO cell membrane assessed as inhibition of DAMGO induced [35S]GTP-gamma-S binding at 10 uM. The experiment is classed as functional, cell membranes.
For experiment [4], the target named is T3, Mu-type opioid receptor. Put plainly: Displacement of [3H]DAMGO from mu opioid receptor expressed in CHO cells. The experiment is classed as cell-based. In general terms: In a radioligand displacement assay an active substance lowers the binding of a labelled ligand.
For experiment [5], the target named is T3, Mu-type opioid receptor. Put plainly: Antagonist activity at human mu opioid receptor expressed in CHO cell membrane assessed as inhibition of DAMGO induced [35S]GTP-gamma-S binding. The experiment is classed as functional, cell membranes.
Experiment [6] has as its target T2, Delta-type opioid receptor. The experiment in a line: Antagonist activity at human delta opioid receptor expressed in CHO cell membrane assessed as inhibition of SNC80 induced [35S]GTPgammaS binding. The format is functional, cell membranes. For orientation: GTPγS is a poorly hydrolysed GTP analogue; its binding reports G protein activation.
Experiment [7] concerns the target T2, Delta-type opioid receptor. Put plainly: Agonist activity at human delta opioid receptor expressed in CHO cell membrane by [35S]GTP-gamma-S binding assay. The experiment is classed as functional, cell membranes.
In experiment [8] the target is T3, Mu-type opioid receptor. The experiment in a line: Agonist activity at human mu opioid receptor expressed in CHO cell membrane by [35S]GTPgammaS binding assay. The format is functional, cell membranes.
Experiment [9] has as its target T1, Kappa-type opioid receptor. The experiment in a line: Agonist activity at human kappa opioid receptor expressed in CHO cell membrane by [35S]GTP-gamma-S binding assay. The format is functional, cell membranes.
Experiment [10] deals with T1, Kappa-type opioid receptor. The experiment in a line: Antagonist activity at human kappa opioid receptor expressed in CHO cell membrane assessed as inhibition of U50,488 induced [35S]GTPgammaS binding. The experiment is classed as functional, cell membranes.

Active and inactive are the calls of the source. No cut-off for these calls is given here.

T3 sequence (P35372 whole entry): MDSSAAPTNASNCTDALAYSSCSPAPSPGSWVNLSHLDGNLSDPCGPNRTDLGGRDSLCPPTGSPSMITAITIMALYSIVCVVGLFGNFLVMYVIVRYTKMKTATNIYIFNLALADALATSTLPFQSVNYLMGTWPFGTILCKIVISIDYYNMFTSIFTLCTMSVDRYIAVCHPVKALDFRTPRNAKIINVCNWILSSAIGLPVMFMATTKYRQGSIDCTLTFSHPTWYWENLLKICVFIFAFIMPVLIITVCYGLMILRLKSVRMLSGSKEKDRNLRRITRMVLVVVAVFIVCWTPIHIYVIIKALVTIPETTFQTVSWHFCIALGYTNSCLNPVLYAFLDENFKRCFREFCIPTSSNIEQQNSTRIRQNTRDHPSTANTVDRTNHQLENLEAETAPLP
T2 sequence (P41143 whole entry): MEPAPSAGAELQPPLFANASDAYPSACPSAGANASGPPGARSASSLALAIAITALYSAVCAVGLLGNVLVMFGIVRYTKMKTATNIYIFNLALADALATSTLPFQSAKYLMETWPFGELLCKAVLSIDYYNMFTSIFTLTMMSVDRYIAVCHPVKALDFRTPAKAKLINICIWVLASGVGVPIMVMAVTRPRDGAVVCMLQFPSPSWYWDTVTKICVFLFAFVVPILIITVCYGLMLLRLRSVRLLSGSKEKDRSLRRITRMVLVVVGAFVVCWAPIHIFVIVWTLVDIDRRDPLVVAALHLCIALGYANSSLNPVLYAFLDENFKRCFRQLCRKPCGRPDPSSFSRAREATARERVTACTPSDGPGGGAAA
T1 sequence (P41145 whole entry): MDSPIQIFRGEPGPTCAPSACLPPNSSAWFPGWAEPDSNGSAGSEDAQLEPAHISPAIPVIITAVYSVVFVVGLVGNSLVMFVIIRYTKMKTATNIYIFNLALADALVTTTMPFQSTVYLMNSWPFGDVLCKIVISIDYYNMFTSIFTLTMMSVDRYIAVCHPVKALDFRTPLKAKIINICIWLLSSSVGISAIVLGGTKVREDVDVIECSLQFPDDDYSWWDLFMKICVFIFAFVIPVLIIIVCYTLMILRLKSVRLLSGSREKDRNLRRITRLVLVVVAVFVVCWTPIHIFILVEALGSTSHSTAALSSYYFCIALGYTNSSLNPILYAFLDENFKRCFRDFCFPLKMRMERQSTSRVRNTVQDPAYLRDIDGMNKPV

As usually defined, the Ki is the dissociation constant of the complex between target and ligand, obtained from inhibition or displacement. Read a low Ki as a stronger hold on the target. Turning to `C[C@H]1[C@H]2Cc3ccc(O)cc3[C@@]1(C)CCN2CC1CC1`, the figures for the Ki in [1] and in [2] were 0.07 nM and 2 nM, respectively.
The term EC50 denotes the concentration giving half of the maximal effect. Higher therefore signals a less potent agent. By Emax is commonly meant the maximal effect, on the per cent scale that the assay sets. Regarding `C[C@H]1C2Cc3ccc(C(=O)NCCc4cccc(-c5ccccc5)c4)cc3[C@@]1(C)CCN2CC1CC1`, the Imax on Mu-type opioid receptor [3] turned out to be 72%. Moreover, the Ki at Mu-type opioid receptor [4] is 0.95 nM; in experiment [2], 5.9 nM. In addition, the result (at Mu-type opioid receptor [5]; in experiment [6]; in experiment [10]) was inactive. The EC50 was 18 nM in experiment [7], 6.8 nM at Mu-type opioid receptor [8] and 12 nM in [9]. Moreover, the values for the Emax (in experiment [7]; at Mu-type opioid receptor [8]; in experiment [9]) were 43%, 41% and 95%, respectively.
Take `C[C@H]1C2Cc3ccc(C(=O)NCCCc4cccc5ccccc45)cc3[C@@]1(C)CCN2CC1CC1`: the Ki at Mu-type opioid receptor [4] turned out to be 2.4 nM; in experiment [1], 1.9 nM; in experiment [2] it was 18 nM.
In the case of `C[C@H]1C2Cc3ccc(C(=O)NCCc4ccccc4Br)cc3[C@@]1(C)CCN2CC1CC1`, the figures for the Ki (at Mu-type opioid receptor [4]; in experiment [1]; in [2]) were 4 nM, 19 nM and 150 nM, respectively.
One may read the IC50 as the concentration needed to halve the response being measured. For `COc1ccc(-c2ccc(CCNC(=O)c3ccc4c(c3)[C@@]3(C)CCN(CC5CC5)C(C4)[C@@H]3C)cc2)cc1`, the IC50 at Mu-type opioid receptor [5] is 24 nM. Moreover, the Imax on Mu-type opioid receptor [5] amounted to 82%. For the same molecule, the result in experiment [6] and in experiment [10] was inactive. For the same molecule, the EC50 in experiment [7] is 0.68 nM; at Mu-type opioid receptor [8] it was 11 nM; in [9], 1.1 nM. Besides, the Emax turned out to be 70% in [7], 27% at Mu-type opioid receptor [8] and 98% in experiment [9].
Regarding `C[C@H]1C2Cc3ccc(C(=O)NCc4cccc5ccccc45)cc3[C@@]1(C)CCN2CC1CC1`, the Ki on Mu-type opioid receptor [4] came to 2.5 nM; in experiment [1], 18 nM; in experiment [2] it was 52 nM.
With `C[C@H]1C2Cc3ccc(C(=O)NCCc4cccc5ccccc45)cc3[C@@]1(C)CCN2CC1CC1`, the values for the Ki (at Mu-type opioid receptor [4]; in [1]; in experiment [2]) were 4.2 nM, 2.4 nM and 24 nM, respectively.
`C[C@H]1C2Cc3ccc(C(=O)NCCc4ccc(-c5ccc(Cl)cc5)cc4)cc3[C@@]1(C)CCN2CC1CC1`: the Imax at Mu-type opioid receptor [3] was 71%. Further, the outcome (on Mu-type opioid receptor [5]; in experiment [6]; in experiment [10]) was inactive. For the same molecule, the EC50 came out at 2 nM in experiment [7], 2.5 nM at Mu-type opioid receptor [8] and 6.4 nM in experiment [9]. Further, the results for the Emax (in [7]; on Mu-type opioid receptor [8]; in [9]) were 45%, 31% and 96%, respectively.
For the molecule `C[C@H]1C2Cc3ccc(C(=O)NCCc4ccccc4-c4ccccc4)cc3[C@@]1(C)CCN2CC1CC1`, at Mu-type opioid receptor [3], the Imax is 73%. In addition, the values for the Ki (on Mu-type opioid receptor [4]; in [1]; in experiment [2]) were 6.7 nM, 2.4 nM and 21 nM, respectively. Also, the values for the EC50 (at Mu-type opioid receptor [8]; in experiment [9]) were 12 nM and 42 nM, respectively. Besides, the figures for the Emax (at Mu-type opioid receptor [8]; in [9]) were 36% and 97%, respectively.
For `C[C@H]1C2Cc3ccc(C(=O)NCCc4ccc(Br)cc4)cc3[C@@]1(C)CCN2CC1CC1`, the Ki stood at 2.4 nM on Mu-type opioid receptor [4], 0.38 nM in experiment [1] and 2.5 nM in experiment [2]. The result (at Mu-type opioid receptor [5]; in experiment [6]; in experiment [10]) was inactive. The EC50 in experiment [7] is 20 nM; on Mu-type opioid receptor [8] it was 16 nM; in [9] it was 20 nM. Besides, the Emax is 120% in experiment [7], 73% on Mu-type opioid receptor [8] and 110% in [9].
Consider `C[C@H]1C2Cc3ccc(C(=O)NCc4ccc5ccccc5c4)cc3[C@@]1(C)CCN2CC1CC1`, for which the Ki was 1.3 nM at Mu-type opioid receptor [4], 19 nM in experiment [1] and 31 nM in experiment [2].
In the case of `C[C@H]1C2Cc3ccc(C(=O)NCCCc4ccc5ccccc5c4)cc3[C@@]1(C)CCN2CC1CC1`, the results for the Ki (at Mu-type opioid receptor [4]; in experiment [1]; in experiment [2]) were 1.9 nM, 0.18 nM and 18 nM, respectively. Further, at Mu-type opioid receptor [5], the IC50 was determined as 320 nM. The Imax at Mu-type opioid receptor [5] worked out at 78%. For the same molecule, the EC50 on Mu-type opioid receptor [8] was determined as 24 nM; in [9] it was 6.3 nM. Further, the Emax on Mu-type opioid receptor [8] came to 31%; in experiment [9] it was 98%. Besides, the outcome in experiment [10] was inactive.
On to `C[C@H]1C2Cc3ccc(C(=O)NCCc4ccc(-c5ccc(Cl)c(Cl)c5)cc4)cc3[C@@]1(C)CCN2CC1CC1`, for which the Ki on Mu-type opioid receptor [4] came to 0.98 nM; in experiment [1], 1.1 nM; in [2] it was 2.5 nM.
As to `C[C@H]1C2Cc3ccc(C(=O)NCCc4ccc5ccccc5c4)cc3[C@@]1(C)CCN2CC1CC1`, the Ki at Mu-type opioid receptor [4] stood at 0.18 nM; in experiment [1], 0.2 nM; in experiment [2] it was 0.9 nM.
For the molecule `C[C@H]1C2Cc3ccc(C(=O)NCCc4cccc(Br)c4)cc3[C@@]1(C)CCN2CC1CC1`, the Ki on Mu-type opioid receptor [4] was determined as 0.35 nM; in [1], 0.063 nM; in experiment [2], 3.5 nM. The IC50 on Mu-type opioid receptor [5] was 230 nM. In addition, at Mu-type opioid receptor [5], the Imax stood at 85%. The result in [6] and in experiment [10] was inactive. The values for the EC50 (in experiment [7]; at Mu-type opioid receptor [8]; in [9]) were 14 nM, 5.6 nM and 4.6 nM, respectively. In addition, the Emax in experiment [7] came to 85%; at Mu-type opioid receptor [8] it was 24%; in experiment [9], 110%.
